# Data reported in doi:10.1101/2022.02.27.481963v1 (biorxiv, 2022).
# Experiments:
# fused MjGMPS = assay: continuous absorbance at […] nm, GMP formation; type: biochemical, Methanocaldococcus jannaschii; details: ATPPase site, pH 7.0, 70 °C
# purified protein = substrate: O=c1[nH]c(=O)c2ncn([C@@H]3O[C@H](COP(=O)(O)O)[C@@H](O)[C@H]3O)c2[nH]1; assay: purified protein; type: biochemical, Methanocaldococcus jannaschii; details: pH 7.0, 70 °C
molecule,measurement,setting,value
Nc1ncnc2c1ncn2[C@@H]1O[C@H](COP(=O)(O)OP(=O)(O)OP(=O)(O)O)[C@@H](O)[C@H]1O [ATP.Mg^2+],Km,"fused MjGMPS; Mg2+ complex, saturating XMP",503 ± 6 µM
O=c1[nH]c(=O)c2ncn([C@@H]3O[C@H](COP(=O)(O)O)[C@@H](O)[C@H]3O)c2[nH]1 [XMP],Km,fused MjGMPS; saturating ATP.Mg2+,44 ± 1 µM
MjATPPase (Methanocaldococcus jannaschii DSM 2661) (protein) MFDPKKFIDEAVEEIKQQISDRKAIIALSGGVDSSVAAVLTHKAIGDKLTAVFVDTGLMRKGEREEVEKTFRDKLGLNLIVVDAKDRFLNALKGVTDPEEKRKIIGKLFIDVFEEIAEDIKAEVLVQGTIAPDWIETQGKIKSHHNVALPHGMVLEVVEPLRELYKDEVRLLAKELGLPDSIVYRQPFPGPGLAVRVLGEVTEEKLNICREANAIVEEEVKKANLDKDLWQYFAVVLDCKATGVKGDEREYNWIVALRMVKSLDAMTAHVPEIPFDLLKRISKRITSEIPNVARVVFDITDKPPATIEFE,Km,"purified protein; NH4Cl dependent, saturating ATP.Mg2+ and NH4Cl",30 ± 2 µM
"MjGMPS (MjATPPase + MjGATase), ATPPase site (Methanocaldococcus jannaschii DSM 2661) (protein) MFDPKKFIDEAVEEIKQQISDRKAIIALSGGVDSSVAAVLTHKAIGDKLTAVFVDTGLMRKGEREEVEKTFRDKLGLNLIVVDAKDRFLNALKGVTDPEEKRKIIGKLFIDVFEEIAEDIKAEVLVQGTIAPDWIETQGKIKSHHNVALPHGMVLEVVEPLRELYKDEVRLLAKELGLPDSIVYRQPFPGPGLAVRVLGEVTEEKLNICREANAIVEEEVKKANLDKDLWQYFAVVLDCKATGVKGDEREYNWIVALRMVKSLDAMTAHVPEIPFDLLKRISKRITSEIPNVARVVFDITDKPPATIEFE",Km,"purified protein; Gln dependent, saturating ATP.Mg2+ and Gln",61 ± 3 µM
